Blank lines part the entries; values can stand above or below the molecule they belong to. Activity calls are given as the source filed them.
Assays:
Caspase-3 = biological target: T1, Caspase-3 (Homo sapiens, UniProt P42574); assay: caspase-3 inhibitors as off-family protease, SAR follow-up, selectivity assay for SENP protease inhibitor project, biochemical, luminescence, set 2 (AID 588599); format: functional
T1 sequence (P42574 whole entry): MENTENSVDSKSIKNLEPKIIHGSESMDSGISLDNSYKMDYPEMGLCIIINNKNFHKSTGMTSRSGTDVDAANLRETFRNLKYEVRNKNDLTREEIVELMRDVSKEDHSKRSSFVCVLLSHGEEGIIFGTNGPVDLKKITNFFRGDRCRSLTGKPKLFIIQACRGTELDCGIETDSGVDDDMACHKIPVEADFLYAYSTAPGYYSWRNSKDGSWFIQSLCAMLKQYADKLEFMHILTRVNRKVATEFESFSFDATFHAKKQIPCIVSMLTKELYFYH

[1] = biological target: T2, Sentrin-specific protease 8 (Homo sapiens, UniProt Q96LD8); assay: SENP8 protease inhibitors, SAR follow-up, biochemical, luminescence, set 2 (AID 588601); format: functional
T2 sequence (Q96LD8 whole entry): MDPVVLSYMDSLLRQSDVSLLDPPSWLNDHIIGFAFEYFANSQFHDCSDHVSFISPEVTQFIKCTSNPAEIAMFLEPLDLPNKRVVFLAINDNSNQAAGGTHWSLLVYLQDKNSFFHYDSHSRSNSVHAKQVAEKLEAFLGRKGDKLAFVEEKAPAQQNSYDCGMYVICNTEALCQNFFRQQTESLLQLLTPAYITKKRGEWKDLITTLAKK

[2] = biological target: T3, Sentrin-specific protease 7 (Homo sapiens, UniProt Q9BQF6); assay: SENP7 protease inhibitors, SAR follow-up, biochemical, luminescence, set 2 (AID 588600); format: functional
T3 sequence (Q9BQF6 whole entry): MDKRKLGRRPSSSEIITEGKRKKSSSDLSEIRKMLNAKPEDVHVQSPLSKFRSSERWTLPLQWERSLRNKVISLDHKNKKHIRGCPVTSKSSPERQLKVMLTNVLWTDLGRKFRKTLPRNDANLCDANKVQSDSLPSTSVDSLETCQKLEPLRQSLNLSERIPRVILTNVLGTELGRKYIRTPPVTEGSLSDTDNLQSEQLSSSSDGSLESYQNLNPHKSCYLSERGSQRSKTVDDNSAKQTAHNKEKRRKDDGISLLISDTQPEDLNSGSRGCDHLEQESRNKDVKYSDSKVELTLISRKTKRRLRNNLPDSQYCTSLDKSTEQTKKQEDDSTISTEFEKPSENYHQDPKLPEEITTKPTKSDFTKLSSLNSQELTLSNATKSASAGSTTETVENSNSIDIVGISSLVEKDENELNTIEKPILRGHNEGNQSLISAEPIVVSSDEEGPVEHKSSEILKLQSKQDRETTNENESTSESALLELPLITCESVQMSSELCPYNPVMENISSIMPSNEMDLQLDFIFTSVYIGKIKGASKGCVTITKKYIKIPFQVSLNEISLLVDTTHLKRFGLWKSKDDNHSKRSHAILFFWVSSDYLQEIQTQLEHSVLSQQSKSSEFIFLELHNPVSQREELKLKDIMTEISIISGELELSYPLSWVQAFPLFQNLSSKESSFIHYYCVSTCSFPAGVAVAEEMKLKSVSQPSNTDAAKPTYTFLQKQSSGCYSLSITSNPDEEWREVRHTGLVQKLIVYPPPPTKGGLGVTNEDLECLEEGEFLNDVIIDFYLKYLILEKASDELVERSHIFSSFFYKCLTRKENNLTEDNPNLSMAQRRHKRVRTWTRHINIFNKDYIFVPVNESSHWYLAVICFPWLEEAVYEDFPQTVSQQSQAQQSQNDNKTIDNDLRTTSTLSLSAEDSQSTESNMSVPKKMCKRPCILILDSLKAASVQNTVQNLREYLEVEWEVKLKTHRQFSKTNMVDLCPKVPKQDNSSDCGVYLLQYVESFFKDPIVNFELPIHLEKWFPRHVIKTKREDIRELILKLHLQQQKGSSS

[3] = biological target: T4, Sentrin-specific protease 6 (Homo sapiens, UniProt Q9GZR1); assay: SENP6 protease inhibitors, SAR follow-up, biochemical, luminescence, set 2 (AID 588598); format: functional
T4 sequence (Q9GZR1 whole entry): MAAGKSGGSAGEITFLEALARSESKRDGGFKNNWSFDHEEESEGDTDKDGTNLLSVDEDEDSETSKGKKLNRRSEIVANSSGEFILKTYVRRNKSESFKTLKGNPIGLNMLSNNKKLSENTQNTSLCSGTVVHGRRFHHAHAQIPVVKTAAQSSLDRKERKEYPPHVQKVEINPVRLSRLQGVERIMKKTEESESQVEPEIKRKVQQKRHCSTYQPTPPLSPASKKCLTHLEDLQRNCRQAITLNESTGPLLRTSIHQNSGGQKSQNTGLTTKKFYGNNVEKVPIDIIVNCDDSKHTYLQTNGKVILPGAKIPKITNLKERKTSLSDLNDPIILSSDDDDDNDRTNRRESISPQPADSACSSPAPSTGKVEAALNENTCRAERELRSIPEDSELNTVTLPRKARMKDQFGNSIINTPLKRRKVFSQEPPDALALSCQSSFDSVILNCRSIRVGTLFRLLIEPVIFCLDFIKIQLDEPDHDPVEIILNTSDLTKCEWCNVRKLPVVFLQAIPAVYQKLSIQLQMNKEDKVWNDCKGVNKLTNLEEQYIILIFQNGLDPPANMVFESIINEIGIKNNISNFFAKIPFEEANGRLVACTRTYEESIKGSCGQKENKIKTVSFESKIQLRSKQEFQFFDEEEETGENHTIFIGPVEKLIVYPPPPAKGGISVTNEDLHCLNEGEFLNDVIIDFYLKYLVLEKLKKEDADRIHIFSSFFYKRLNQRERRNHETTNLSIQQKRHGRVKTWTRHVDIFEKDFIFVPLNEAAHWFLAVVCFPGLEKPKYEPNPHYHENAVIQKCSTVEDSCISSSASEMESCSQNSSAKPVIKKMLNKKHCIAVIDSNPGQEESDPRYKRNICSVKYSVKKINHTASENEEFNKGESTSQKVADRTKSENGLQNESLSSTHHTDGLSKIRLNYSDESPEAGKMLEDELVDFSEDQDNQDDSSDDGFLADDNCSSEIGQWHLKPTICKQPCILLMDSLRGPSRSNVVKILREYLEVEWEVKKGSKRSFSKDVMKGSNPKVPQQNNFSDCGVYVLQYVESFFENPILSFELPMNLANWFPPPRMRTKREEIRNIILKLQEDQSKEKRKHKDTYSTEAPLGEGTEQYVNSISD

CAAX prenyl protease 2 = biological target: T5, CAAX prenyl protease 2 (Saccharomyces cerevisiae S288c, UniProt Q03530); assay: yeast Rce1 CaaX protease inhibitors, dose response, biochemical, plate reader, dry powder retest (AID 588851)
T5 sequence (Q03530 whole entry): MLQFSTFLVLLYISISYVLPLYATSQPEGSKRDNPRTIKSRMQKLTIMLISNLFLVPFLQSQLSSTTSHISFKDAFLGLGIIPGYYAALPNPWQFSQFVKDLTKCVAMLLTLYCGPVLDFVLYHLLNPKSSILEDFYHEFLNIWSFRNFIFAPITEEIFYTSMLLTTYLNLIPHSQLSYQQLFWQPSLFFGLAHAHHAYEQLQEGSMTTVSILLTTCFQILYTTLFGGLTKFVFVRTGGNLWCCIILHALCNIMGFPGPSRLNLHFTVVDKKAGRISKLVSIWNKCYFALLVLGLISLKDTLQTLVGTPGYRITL

CHO = assay: cytotoxicity in TLR9-MyD88 CHO cells, dose response, cytotoxicity control for TLR9-MyD88 binding inhibitor project, cell-based, luminescence (AID 588339); format: functional, hamster; conditions: Cricetulus griseus;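 also: CHO cells stably coexpressing TLR9 and MyD88 fusions from primary screen; compound exposure lasted 48 hours before viability readout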
Beta Lactamase = Beta Lactamase (Pseudomonas aeruginosa, UniProt Q932Y6); assay: beta-lactamase reporter inhibitor potency, dose response, artefact control for TLR9-MyD88 binding inhibitor project, BLA reporter cells, FRET fluorescence (AID 588341); format: cell-based;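 also: cell based assay in CHO-K1 cells stably expressing beta-lactamase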
Sequence of Beta Lactamase (Q932Y6 whole entry): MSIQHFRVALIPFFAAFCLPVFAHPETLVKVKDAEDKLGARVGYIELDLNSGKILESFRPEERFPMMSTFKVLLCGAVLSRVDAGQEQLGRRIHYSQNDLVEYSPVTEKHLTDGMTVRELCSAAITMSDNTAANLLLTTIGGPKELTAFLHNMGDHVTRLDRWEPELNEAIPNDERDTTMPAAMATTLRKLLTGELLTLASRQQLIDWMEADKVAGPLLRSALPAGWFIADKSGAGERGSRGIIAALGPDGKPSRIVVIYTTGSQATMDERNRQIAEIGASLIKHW

[4] = biological target: T2, Sentrin-specific protease 8; format: functional
[5] = biological target: T2, Sentrin-specific protease 8; format: functional; remark: listed apart in the source

IC50 (Caspase-3): > 99 µM (inactive)
IC50 [2]: > 99 µM (inactive)
IC50 [3]: > 99 µM (inactive)
Compound: CC(C)(C)C(=O)N1CCC(C(=O)Nc2nc3c(F)cc(F)cc3s2)CC1
IC50 [1]: > 99 µM (inactive)

AC50 (CAAX prenyl protease 2): 54.9 µM (active)
Compound: CCCOc1ccc(-c2c(C(=O)N/N=C/c3cccs3)nnn2-c2nonc2N)cc1

Compound: Cc1ccc(N2C(=O)Cc3ccccc3C2=O)cc1
IC50 (CHO): > 49.8 µM (inactive)
IC50 (Beta Lactamase): 4.59 µM (active)
IC50 [4]: > 100 µM (inactive)
IC50 [5]: 3.36 µM (active)

— ChEMBL document CHEMBL1201862, “PubChem BioAssay data set” (2004)
